Laboratory results published in patent US8168596B2, “Use of cycloartane compounds for treating arthritis” (NuLiv Holding Inc., priority 2008, dated 2012).

Key:
MMP1 = assay: Western blotting of MMP1 protein expression induced by PMA in SW1353 cells (Example 2); type: cell-based, human; conditions: for level of MMP1 protein expression (group without AS4 treatment set as 1): then PMA 100 ng/mL 24 h, culture medium
Method: Alternatively, the control group was treated with 0.1% dimethyl sulfoxide (DMSO). Phorbol myristate acetate (PMA; Sigma, St. Louis, Mo.) at a concentration of 100 ng/mL was then added into each well and the cells were incubated for 24 hours. The culture medium was collected for western blotting analysis.
Western blotting analysis was carried out based on the following procedure. Cells were washed and lysed in 0.2 mL of lysis buffer (1% NP-40, 50 mM Tris-HCl, pH 7.4, 180 mM NaCl, 1 mM EDTA, 1 mM PMSF, 1 mM NaF, 10 mM Na3VO4) for 30 min at 4° C. After centrifugation at 17500 g for 15 min, the supernatants of cell lysate were collected. Protein concentrations of the samples were measured using the bicinchoninic acid (BCA) protein assay kit according to the manufacturer's protocol (Pierce, Rockford, Ill., USA). Equal amounts of protein samples of concentrated conditioned medium (100 μg) or cell lysate supernatants (50 μg) were mixed with an appropriate volume of 4×SDS sampling buffer and separated on a 8% SDS-PAGE gel. The protein bands separated on the SDS-PAGE gel were blotted onto a polyvinylidene fluoride (PVDF) membrane. The blotted PVDF membrane was washed twice and blocked in freshly prepared Tris-buffered saline (TBS) containing 0.1% Tween-20 and 7% skim milk (TBST) for 2 hours at room temperature. The PVDF membrane was then incubated with a primary antibody against MMP1 protein (Santa Cruz Biotechnology, Santa Cruz, Calif.) for 18 hours at 4° C. Horseradish peroxidase-conjugated anti-goat antibody was used as the secondary antibody. Signals were visualized by an enhanced chemiluminescence kit (Clonetech, Palo Alto, Calif., USA) followed by exposure to X-ray films.
In another testing, the SW1353 cells were treated with 0.1 μM astragaloside IV (AS4), followed by incubation for 24 hours. PMA at a concentration of 100 ng/mL was then added into each well. The culture medium was collected after 6, 12, 18 and 24 hours of PMA treatment for western blotting analysis.

MMP-1 = assay: Western blot of MMP-1 in PMA- or IL-1β-pre-treated SW1353 cells (Example 6); type: cell-based, human; conditions: 48 h
Method: The cells were then plated on 6-cm dishes at a density of 1×10^6 cells/dish for 24 hours prior to any treatment. At the beginning of the experiment, the cells were pre-treated with 100 ng/mL PMA or 10 ng/mL IL-1β for 24 hours. The cells were then treated 0.1 μM Dexamethasone with, various astragaloside compounds (0.1 μM) or extracts of Astragalus membranaceous (1 μg/mL) at indicated dosages for another 48 hours. For control sample, 0.1% DMSO was used as a negative control for these experiments. The conditioned culture mediums were then centrifuged, 2-fold concentrated and collected for assay of collagens or MMPs secreted into the culture medium.
Western blotting analysis was carried out on both cultured medium and cell lysates, as follows. The cells were washed and lysed in 0.2 mL of lysis buffer (1% NP-40, 50 mM Tris-HCl, pH 7.4, 180 mM NaCl, 1 mM EDTA, 1 mM PMSF, 1 mM NaF, 10 mM Na3VO4) for 30 min at 4° C. After centrifuging at 17500 g for 15 min, the supernatants of cell lysate were also collected. Protein concentration of the samples were measured using the bicinchoninic acid (BCA) protein assay kit according to the manufacturer's protocol (Pierce, Rockford, Ill., USA). Equal amount of protein samples of concentrated conditioned medium (100 μg) or cell lysate supernatants (50 μg) were mixed with an appropriate volume of 4×SDS sampling buffer and separated by 8% SDS-PAGE gel. The protein bands separated in the SDS-PAGE gel were blotted onto a polyvinylidene fluoride (PVDF) membrane. The blotted PVDF membrane was washed twice and blocked in freshly prepared Tris-buffered saline (TBS) containing 0.1% Tween-20 and 7% skim milk (TBST) for 2 hours at room temperature. The PVDF membrane was then incubated with either antibodies against collagen I and III or the housekeeping protein α-tubulin (Santa Cruz Biotechnology, Santa Cruz, Calif.) for 18 hours at 4° C. Horseradish peroxidase-conjugated anti-goat antibody was used as secondary antibody. Signals were visualized by an enhanced chemiluminescence kit (Clonetech, Palo Alto, Calif., USA) followed by exposure to X-ray films.

MMP-13 = assay: Western blot of MMP-13 in pre-treated human chondrocytes (HCHs); type: cell-based; conditions: IL-1β-pre-treated HCH culture medium; compounds 0.1 μM, 48 h
Type II Collagen = assay: Western blot of Type II Collagen in pre-treated human chondrocytes (HCHs); type: cell-based; conditions: IL-1β-pre-treated HCH culture medium; compounds 0.1 μM, 48 h

CC(C)(O)[C@@H]1CC[C@](C)([C@H]2[C@@H](O)C[C@@]3(C)[C@@H]4C[C@H](O[C@@H]5O[C@H](CO)[C@@H](O)[C@H](O)[C@H]5O)[C@H]5C(C)(C)[C@@H](O[C@@H]6OC[C@@H](O)[C@H](O)[C@H]6O)CC[C@@]56C[C@@]46CC[C@]23C)O1 [AS4, Astragaloside IV]
level of MMP1 protein expression (group without AS4 treatment set as 1) (MMP1; AS4 0.01 μM 24 h): 0.77 | level of MMP1 protein expression (group without AS4 treatment set as 1) (MMP1; AS4 0.1 μM 24 h): 0.64 | level of expression of MMP1 protein at different time points, compared with only PMA treatment (MMP1; AS4 0.1 μM 24 h, then PMA 100 ng/mL, 6, 12, 18 and 24 hours): inhibited | level of MMP1 protein expression (group without AS4 treatment set as 1) (MMP1; AS4 1 μM 24 h): 0.55 | MMP-1, Western blot, relative to Ctrl 1.00 (MMP-1; IL-1β-pre-treated SW1353 cell extract, compounds 0.1 μM): 0.22 | MMP-1, Western blot, relative to Ctrl 1.00 (MMP-1; PMA-pre-treated SW1353 cell extract, 0.1 μM): 0.74 | MMP-13, Western blot, relative to Ctrl 1.00 (MMP-13): 0.55 | Type II Collagen, Western blot, relative to Ctrl 1.00 (Type II Collagen): 1.16
